Experimental data published in ChEMBL document CHEMBL3885881, “DrugMatrix”.

Species on record: Rattus norvegicus
Test: DrugMatrix - Regimen: Daily Repeat
Type: toxicity, organism-based, Sprague-Dawley
Design: regimen Daily Repeat, gender Male, age 6-8 weeks
Settings: in vivo, po, route oral GAVAGE, vehicle 100 % WATER; for ABSOLUTE BASOPHIL / ABSOLUTE EOSINOPHIL / ABSOLUTE LYMPHOCYTE / ABSOLUTE MONOCYTE / ABSOLUTE SEGMENTED NEUTROPHIL / BASOPHIL / EOSINOPHIL / ERYTHROCYTE COUNT / HEMATOCRIT / HEMOGLOBIN / LEUKOCYTE COUNT / LYMPHOCYTE / MEAN CORPUSCULAR HEMOGLOBIN / MEAN CORPUSCULAR HEMOGLOBIN CONCENTRATION / MEAN CORPUSCULAR VOLUME / MONOCYTE / NEUTROPHIL / NUCLEATED RED BLOOD CELLS / PLATELET COUNT: tissue Blood; for ALANINE AMINOTRANSFERASE / ALBUMIN / ALKALINE PHOSPHATASE / ASPARTATE AMINOTRANSFERASE / BLOOD UREA NITROGEN / CARBON DIOXIDE / CHLORIDE / CHOLESTEROL / CREATINE PHOSPHOKINASE / CREATININE / GLUCOSE / LACTATE DEHYDROGENASE / LIPASE / PHOSPHORUS / POTASSIUM / SODIUM / TOTAL BILIRUBIN / TOTAL PROTEIN / URIC ACID: tissue Plasma
[1] = 19.5 mg/kg, 120 h, dose level Low, time 5 day
[2] = 75 mg/kg, 72 h, dose level High, time 3 day
[3] = 75 mg/kg, 120 h, dose level High, time 5 day

Q: Which results are given for `CN1CCC[C@H]1c1cccnc1` [NICOTINE]?
A: ABSOLUTE BASOPHIL [1]: 0 CELLS/uL; ABSOLUTE EOSINOPHIL [1]: 37.67 CELLS/uL; ABSOLUTE LYMPHOCYTE [1]: 10299.33 CELLS/uL; ABSOLUTE MONOCYTE [1]: 0 CELLS/uL; ABSOLUTE SEGMENTED NEUTROPHIL [1]: 1096.33 CELLS/uL; BASOPHIL [1]: 0%; EOSINOPHIL [1]: 0.33%; ERYTHROCYTE COUNT [1]: 5.67 x10E6/uL; HEMATOCRIT [1]: 35.63%; HEMOGLOBIN [1]: 14.17 G/DL; LEUKOCYTE COUNT [1]: 11.43 x10E3/uL; LYMPHOCYTE [1]: 90.33%; MEAN CORPUSCULAR HEMOGLOBIN [1]: 25 pg; MEAN CORPUSCULAR HEMOGLOBIN CONCENTRATION [1]: 39.77 G/DL; MEAN CORPUSCULAR VOLUME [1]: 62.83 fL; MONOCYTE [1]: 0%; NEUTROPHIL [1]: 9.33%; NUCLEATED RED BLOOD CELLS [1]: 0.33 /100WBC; PLATELET COUNT [1]: 1167.67 x10E3/uL; ALANINE AMINOTRANSFERASE [1]: 54.67 u/L; ALBUMIN [1]: 4.17 G/DL; ALKALINE PHOSPHATASE [1]: 397.33 u/L; ASPARTATE AMINOTRANSFERASE [1]: 83.67 u/L; BLOOD UREA NITROGEN [1]: 12 mg/dL; CARBON DIOXIDE [1]: 34.33 mmol/L; CHLORIDE [1]: 101 MEQ/L; CHOLESTEROL [1]: 62.33 mg/dL; CREATINE PHOSPHOKINASE [1]: 196.67 u/L; CREATININE [1]: 0.21 mg/dL; GLUCOSE [1]: 146.67 mg/dL; LACTATE DEHYDROGENASE [1]: 207.67 u/L; LIPASE [1]: 11.67 u/L; PHOSPHORUS [1]: 11.63 mg/dL; POTASSIUM [1]: 6.48 MEQ/L; SODIUM [1]: 143.9 MEQ/L; TOTAL BILIRUBIN [1]: 0.23 mg/dL; TOTAL PROTEIN [1]: 6.03 G/DL; URIC ACID [1]: 1.2 mg/dL; ABSOLUTE BASOPHIL [2]: 0 CELLS/uL; ABSOLUTE EOSINOPHIL [2]: 0 CELLS/uL; ABSOLUTE LYMPHOCYTE [2]: 13562.33 CELLS/uL; ABSOLUTE MONOCYTE [2]: 210.33 CELLS/uL; ABSOLUTE SEGMENTED NEUTROPHIL [2]: 827.33 CELLS/uL; BASOPHIL [2]: 0%; EOSINOPHIL [2]: 0%; ERYTHROCYTE COUNT [2]: 5.82 x10E6/uL; HEMATOCRIT [2]: 37.17%; HEMOGLOBIN [2]: 14.57 G/DL; LEUKOCYTE COUNT [2]: 14.6 x10E3/uL; LYMPHOCYTE [2]: 93%; MEAN CORPUSCULAR HEMOGLOBIN [2]: 25.03 pg; MEAN CORPUSCULAR HEMOGLOBIN CONCENTRATION [2]: 39.2 G/DL; MEAN CORPUSCULAR VOLUME [2]: 63.87 fL; MONOCYTE [2]: 1.33%; NEUTROPHIL [2]: 5.67%; NUCLEATED RED BLOOD CELLS [2]: 0.33 /100WBC; PLATELET COUNT [2]: 1370 x10E3/uL; ALANINE AMINOTRANSFERASE [2]: 58.67 u/L; ALBUMIN [2]: 4.07 G/DL; ALKALINE PHOSPHATASE [2]: 398 u/L; ASPARTATE AMINOTRANSFERASE [2]: 92 u/L; BLOOD UREA NITROGEN [2]: 11 mg/dL; CARBON DIOXIDE [2]: 25.67 mmol/L; CHLORIDE [2]: 101.33 MEQ/L; CHOLESTEROL [2]: 64 mg/dL; CREATINE PHOSPHOKINASE [2]: 288.33 u/L; CREATININE [2]: 0.13 mg/dL; GLUCOSE [2]: 150.33 mg/dL; LACTATE DEHYDROGENASE [2]: 290.67 u/L; LIPASE [2]: 10.33 u/L; PHOSPHORUS [2]: 11.73 mg/dL; POTASSIUM [2]: 6.07 MEQ/L; SODIUM [2]: 143.23 MEQ/L; TOTAL BILIRUBIN [2]: 0.17 mg/dL; TOTAL PROTEIN [2]: 5.73 G/DL; URIC ACID [2]: 1.6 mg/dL; ABSOLUTE BASOPHIL [3]: 0 CELLS/uL; ABSOLUTE EOSINOPHIL [3]: 0 CELLS/uL; ABSOLUTE LYMPHOCYTE [3]: 9380.67 CELLS/uL; ABSOLUTE MONOCYTE [3]: 97.67 CELLS/uL; ABSOLUTE SEGMENTED NEUTROPHIL [3]: 455 CELLS/uL; BASOPHIL [3]: 0%; EOSINOPHIL [3]: 0%; ERYTHROCYTE COUNT [3]: 6.33 x10E6/uL; HEMATOCRIT [3]: 38.6%; HEMOGLOBIN [3]: 15.23 G/DL; LEUKOCYTE COUNT [3]: 9.93 x10E3/uL; LYMPHOCYTE [3]: 94.33%; MEAN CORPUSCULAR HEMOGLOBIN [3]: 24.1 pg; MEAN CORPUSCULAR HEMOGLOBIN CONCENTRATION [3]: 39.5 G/DL; MEAN CORPUSCULAR VOLUME [3]: 61 fL; MONOCYTE [3]: 1%; NEUTROPHIL [3]: 4.67%; NUCLEATED RED BLOOD CELLS [3]: 0.33 /100WBC; PLATELET COUNT [3]: 1256.67 x10E3/uL; ALANINE AMINOTRANSFERASE [3]: 64.67 u/L; ALBUMIN [3]: 4.53 G/DL; ALKALINE PHOSPHATASE [3]: 383 u/L; ASPARTATE AMINOTRANSFERASE [3]: 91 u/L; BLOOD UREA NITROGEN [3]: 12.67 mg/dL; CARBON DIOXIDE [3]: 33 mmol/L; CHLORIDE [3]: 101.67 MEQ/L; CHOLESTEROL [3]: 71.67 mg/dL; CREATINE PHOSPHOKINASE [3]: 315 u/L; CREATININE [3]: 0.22 mg/dL; GLUCOSE [3]: 140.33 mg/dL; LACTATE DEHYDROGENASE [3]: 131.33 u/L; LIPASE [3]: 9.67 u/L; PHOSPHORUS [3]: 9.5 mg/dL; POTASSIUM [3]: 5.03 MEQ/L; SODIUM [3]: 147.7 MEQ/L; TOTAL BILIRUBIN [3]: 0.17 mg/dL; TOTAL PROTEIN [3]: 6.6 G/DL; URIC ACID [3]: 0.77 mg/dL
